Consider twelve molecules from PubChem BioAssay (NCI).

“And” between values parts separate entries of the source, which are not always exact repeats. Equal entries are not always repeated.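 Where inhibition never reached the appropriate level, the endpoint shown equals the highest concentration tested. Otherwise, values were interpolated linearly from a five-concentration, 48-hour dose response in 96-well plates. GI50 is the concentration that inhibits growth by half. TGI: total growth inhibition.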

Holding throughout (test): NCI tumour cell line growth inhibition, 48 h
The test system of assay [1] is COLO 205 colon.
The test system of assay [2] is HOP-62 NSCLC.
In assay [3] the test system is HOP-92 NSCLC.
The test system of assay [4] is LXFL 529 NSCLC.
Assay [5] concerns M14 melanoma.
In assay [6] the test system is M19-MEL melanoma.
Assay [7] has as its system NCI/ADR-RES ovarian.
Assay [8] concerns OVCAR-5 ovarian.
In assay [9] the test system is SK-OV-3 ovarian.
In assay [10] the test system is U251 CNS.

On to `COc1ccc(/C(Cl)=C(\C=O)c2ccc([N+](=O)[O-])cc2)cc1OC`, for which the TGI in assay [1] is above 58.3 µM; in assay [2] it was above 100 µM; in assay [3], 24.9 µM; in [4], 13.7 µM; in assay [5], 43.5 µM; in assay [6], 24.3 µM. Also, the TGI was 53.3 µM in assay [7], above 100 µM in assay [8], 60 µM in [9] and 20.2 µM in assay [10].
`CCNCC(=O)O[C@]1(CC)C(=O)OCc2c1cc1n(c2=O)Cc2cc3ccccc3nc2-1`: the TGI in assay [1] was 16.5 µM; in assay [2], 0.274 µM; in [3], 13.8 µM; in assay [4], 42.6 µM; in assay [5], 13.7 µM; in assay [6], 5.44 µM. Besides, the TGI in assay [7] came to 1.39 µM; in assay [8], 13.2 µM; in assay [9], 10.8 µM; in assay [10] it was 6.61 µM.
For the molecule `CC(=O)OC1CC(n2cc(F)c(=O)[nH]c2=O)OC1CO` (stereo not drawn), the TGI in assay [1] is above 100 µM; in assay [2], 10.1 µM; in assay [3] it was above 69 µM; in assay [4], 16.4 µM; in assay [5] it was 45.6 µM; in [6], above 100 µM. In addition, the TGI in assay [7], in assay [8], in assay [9] and in assay [10] was above 100 µM in each case.
For `N#CC(C(=O)/C(=N\Nc1nc(=S)[nH]n1N)C(C#N)c1ccc(Cl)cc1)c1ccc(Cl)cc1` (stereo not drawn), the TGI in [1], in assay [2], in [3], in assay [4], in [5] and in assay [6] was above 100 µM in each case. In addition, the TGI in assay [8], in assay [9] and in assay [10] was above 100 µM each time.
`CCn1c2c(n(CC)c1=S)-c1c(n(CC)c(=S)n1CC)SSSS2`: the TGI in [1] was 19.1 µM; in assay [2], above 100 µM; in [3] it was 9.71 µM; in assay [4] it was 5.97 µM; in assay [5] it was 18.1 µM; in [6], 22.1 µM. Moreover, the TGI in [8] came out at 27.8 µM; in [9], 98.9 µM; in [10], 45.5 µM.
Consider `COC1=CC(O)(CC(N)=O)c2ccccc2C1=O` (stereo not drawn), for which the TGI in assay [1], in assay [2], in [3], in [4], in assay [5] and in [6] was above 100 µM in each case. Besides, the TGI in assay [8], in [9] and in assay [10] was above 100 µM throughout.
With `CN(C)c1ccc(/C=C(/NC(=O)c2ccccc2)c2nc3ccc(Cl)cc3[nH]2)cc1`, the TGI in assay [1] was 66.7 µM; in assay [2], above 100 µM; in assay [3] it was 80.1 µM; in [4], 97.4 µM; in [5] it was above 100 µM; in [6] it was 69.6 µM. Also, the TGI in assay [7] was above 100 µM; in assay [8], 97.5 µM; in assay [9], above 100 µM; in assay [10], above 100 µM. In addition, the GI50 in assay [7] was 30.7 µM.
For the molecule `CC[C@H]1CN2CCc3cc(OC)c(OC)cc3[C@@H]2C[C@@H]1C[C@H]1NCCc2cc(O)c(OC)cc21`, the TGI in assay [1] is 0.0187 µM; in [2], 0.0967 µM and 0.735 µM and 0.13 µM; in assay [3] it was 0.0742 µM and < 0.0176 µM; in assay [5], 0.0222 µM and 0.015 µM; in assay [6] it was 0.0492 µM and 0.0178 µM and 0.0876 µM; in [7], > 100 µM and 10.7 µM. Besides, the TGI in assay [8] is 0.0751 µM and 0.503 µM. Besides, the GI50 was 0.0245 µM and 0.0294 µM in [2]; 0.0118 µM in assay [4]; 0.00787 µM in assay [5].
For `CN(C)c1ccc(N=Cc2c([O-])ccc3ccccc23)cc1.[C-]#[O+].[C-]#[O+].[Ir]`, the GI50 in assay [1] is 17.5 µM; in [2], 44.1 µM; in assay [3], 17.2 µM; in assay [4], 12.5 µM; in assay [5] it was 20.7 µM; in assay [6], 16.2 µM. In addition, the GI50 was 29.1 µM in [8], 34.4 µM in [9] and 15.7 µM in [10]. The TGI in assay [1] is 33.9 µM; in assay [2], above 100 µM; in assay [3] it was 37.3 µM; in [4] it was 25.9 µM; in assay [5], 46.1 µM; in assay [6] it was 30.9 µM. The TGI in [8] is 64.3 µM; in assay [9], above 100 µM; in assay [10] it was 30.4 µM.
For `O=S(O)CCCCCSSCCCCSSCCCCCS(=O)O`, the TGI in [1], in assay [2], in assay [3], in assay [4], in assay [5] and in assay [6] was above 100 µM each time. The TGI in assay [8], in [9] and in assay [10] was above 100 µM in each case.
Consider `COc1cc2c(cc1OC)-c1cc3cc(OC)c(OC)cc3n1CC2`, for which the TGI in [1], in assay [2], in assay [3], in assay [4], in [5] and in assay [6] was above 100 µM throughout. The TGI in assay [8], in assay [9] and in assay [10] was above 100 µM in each case.
As to `C[C@]12CCC[C@H](Cl)C1(O)C[C@H](C(=O)O)CC2` (stereo partly drawn), the TGI in assay [1], in assay [2], in assay [3], in [4], in assay [5] and in [6] was above 100 µM each time. The TGI in assay [8], in [9] and in assay [10] was above 100 µM each time.
